Measurements from patent US11135163B2, “Peptide hydrogel properties and its applications” (Kansas State University Research Foundation, priority 2014, dated 2021).
Where two headings read alike, the source gives them in different places.

Experiments:
[1] = h9e-2i medium hydrogel rheology and stability; assay type: physicochemical
Procedure: Two different types of stem cell mediums were selected for this test. One is a low glucose DMEM medium with 2% (v/v) Fetal Bovine Serum (FBS) for Mesenchymal Stromal Cell (MSC medium). The other one is a N2B27 supplemented serum-free 2i medium with 0.5% (v/v) Bovine Serum Albumin (BSA) for rat Embryonic Stem Cell (ESC, 2i medium). The hydrogel formation process was monitored under a time sweep rheological test for 1 hour. The special shear-thinning and self-healing property of h9e peptide hydrogel was also tested. […] In addition, the stability of hydrogel as well as the peptide solution before the hydrogel formation was also tested.
The h9e peptide was synthesized according to the method mentioned above. Lyophilized peptide was added to 100 mM sodium bicarbonate and completely dissolved by magnetic stirring for 3 hours with a final peptide concentration of 10 mM. For hydrogelation, peptide solution was added into MSC medium or 2i medium and the mixture was hand-shaken for about 10 seconds or gently pipette mixed 3 times. The final peptide concentrations were 1, 2, and 3 mM.
The storage and loss moduli (G′ and G″, respectively) of h9e hydrogels were determined on a C-VOR 150 rheometer system (Malvern instruments, Malvern, Worcestershire WR141XZ, United Kingdom) with a 20-mm diameter parallel plate geometry and 500 μm gap size at 37° C. The methods for hydrogel formation test and shear-thinning and self-healing test were the same as the methods of cancer cell medium mentioned above. After 24 hours of hydrogel formation, 2 mM peptide hydrogel was diluted 20 fold by adding cell culture medium and thorough mixing by pipette. The diluted solution was transferred to rheometer system and tested under 1 Hz frequency and 1% shear strain at 4° C. for 1 hour.
The stability of h9e-2i medium hydrogel was tested. A plastic tray was placed on the bottom of the well plate. Next, 1 wt % h9e solution was mixed with 2i medium at 1:1 (v:v) ratio in a centrifuge tube and then transferred into the well plate. There was 500 μl peptide hydrogel for each well. The well plate was then placed in an incubator for 1 hour. After hydrogel was stable, another 500 μl of 2i medium was slowly added on the top of hydrogel. The top medium was replaced every other day. For mechanical testing, the top 2i medium was removed and hydrogel was transferred to a dynamic rheometer using the tray. The stability of the peptide solution was also tested using 1 wt % peptide solution stored in 4° C. refrigerator for up to 24 days. Part of the peptide solution was taken out and mixed with 2i medium with 1:1 (v:v) ratio on days 1, 6, 18 and 24. The hydrogel formation process was monitored under the single frequency (1 Hz) rheological test with 1% shear strain for 1 hour.

Male Wistar rats = test: In vivo hemostatic efficiency, cut rat tail model; conditions: all percent concentrations of h9e peptide solution
Description: Similar to the method used by Mortazavi et al., in this study 30 rats were divided randomly into 5 groups of 6 animals each. […] Male Wistar rats were kept on AIN-93 diet with free access to water, under 12-h light-dark cycles, for one week. Before excising the tail, the rats were first anesthetized and maintained with 3% isoflurane until the eyelid closure reflex was lost and there was no reactive reflex in response to a toe pinch. In order to maintain an appropriate body temperature during anesthesia, a circulating water blanket was used at a temperature of 41-43° C. Following anesthesia, animals' tails were cut off at a thickness of 5 mm using a pair of mortuary scissors. The cut tail was immediately inserted into a small vial containing the appropriate treatment. The 1st group received topical saline solution (negative control) and the 2nd to 4th groups received topical h9e peptide solution at 1, 3, or 5 wt %, respectively. The 5th group received a topical application of a commercially available hemostatic agent as a positive control (Moore Medical CELOX* Hemostatic Granules). After treatment with above mentioned agents, the volume of blood lost was measured using a scaled test-tube. The bleeding time was measured using a stop watch. At the conclusion of the study, the rats were sacrificed using a CO2 chamber.

[2] = Comparison of material properties of 3D cell culture hydrogels; assay type: physicochemical
[3] = Instantaneous gelation time sweep of peptide sequences 1, 3 and 4; assay type: physicochemical; conditions: triggered with 100 mM CaCl2 solution (FIG. 12, 13)
Procedure: Similar to the methods used in U.S. 2013/0018004. Hydrogels were prepared with peptide 1, 3, and 4 alone, or mixture of peptide sequence 1 and 4 at 1:1 ratio. Hydrogels were triggered by calcium ions and BSA alone or co-trigger (calcium ions+BSA).

Rat ESCs and iPSCs = test: Stem cell 3D culture in h9e hydrogel; assay type: cell-based
Description: Rat PSCs: Animal use was approved by the KSU Institutional Animal Care and Use Committee (protocol #3168). Rat ESCs were derived in-house from Dark Agouti rats and characterized following the methods described in previous studies. Low passage ESCs were thawed, expanded one passage in 2D on MEF feeders, and then used in these experiments. Rat iPSCs were generated from Fischer 344 rat embryonic fibroblasts using a mouse OKSM STEMCCA lentiviral reprogramming vector according to the manufacturer's protocol (Millipore, SCR513).
3D cell culture: We adapted the techniques used previously to encapsulate breast cancer cells in 3D described in previous studies. This was done by using the regular h9e peptide hydrogel (1% wt=6 mM) in an aqueous solution. The peptide hydrogel-medium was prepared by directly mixing the aqueous h9e peptide solution with concentrated 2i plus LIF medium at 1:1 ratios for a final peptide concentration of 3 mM (600 Pa). […] Specifically, medium was made at 1.2× concentration for the 1:5 dilution, […] for the […] and 2× for the 1:1 dilution in the three h9e hydrogel concentrations. After mixing, the cells were added and the mixture was immediately added to the dish slowly to avoid air bubbles. The plates were then incubated for 30 min at 37° C. to permit gelation. To feed, 1× concentration 2i plus LIF medium was added slowly to the top of the hydrogel. To pass, the media was pipetted up and down by adding 1-2 ml of PBS more forcefully to shear the gel, and the liquefied contents were then added to a tube and diluted to a concentration that was below that which permitted gelation. The colonies were pelleted by low speed centrifugation (100×g for 5 min at room temperature), washed with calcium and magnesium free PBS, and then trypsinized to single cells by addition of trypsin EDTA for 5 min. Enzymatic reaction was terminated by dilution with PBS and 2 washing steps. The PSCs were suspended in a small volume of medium, added to the 1× hydrogel-medium solution, and re-plated at the desired concentration. Alkaline phosphatase staining, Immunofluorescence staining: Karyotyping, Embryoid body formation, Gene expression analysis were performed to determine the differentiation properties.

stability of h9e solution [1]: exceed 2 months | G′ ([1]; 1 mM h9e-2i hydrogel): about 100 Pa | G′ after shearing into liquid state ([1]; 2 mM h9e-2i hydrogel): < 0.2 Pa | stable G′ ([1]; 2 mM h9e-2i hydrogel): 600 Pa | mechanical strength restored ([1]; 2 mM h9e-2i hydrogel, within a few minutes of recovery test): 100% | stable G′ ([1]; 3 mM h9e-2i hydrogel): 600 Pa | G′ of h9e-2i hydrogel during 7 days (stability) ([1]; 1 wt % h9e solution mixed 1:1 with 2i medium): 130-160 Pa | stability of h9e solution ([1]; stored at 4° C. for 24 days, then mixed with 2i medium): could still form a hydrogel | Porosity [2]: 50-200 nm | final gel strength after 30 minute gelation time sweep [3]: 240 Pa
Substance: H-FLIVIGSIIGPGGDGPGGD-NH2 [h9e, FLIVIGSIIGPGGDGPGGD]
control of hemorrhage versus sterile saline negative control (Male Wistar rats): effective in controlling hemorrhage | serial passages maintained in the undifferentiated state (Oct4, Nanog, Sox2, SSEA-1 staining) (Rat ESCs and iPSCs; 3 mM h9e hydrogel, 3D culture): at least 25 serial passages | proliferation of encapsulated rat pluripotent stem cells (Rat ESCs and iPSCs; 3 mM hydrogel): proliferated well | alkaline phosphatase staining after more than 25 passages (Rat ESCs and iPSCs; 3D culture in hydrogel): not affected | spontaneous differentiation on the colony edges (Rat ESCs and iPSCs; rat ESC or rat iPSC cultures): never observed
